Reference: PubChem BioAssay AID1963446 (Molecular Pharmacology Branch, DTP, NCI, 2024)
pIC50: −log10 of the molar value. “And” between values parts separate entries of the source, which are not always exact repeats. Identical values can stand only once.

System: 993429-296-R-J1-PDC complex spheroid growth, percent test/control
Experiment: Anticancer human tumor 993429-296-R-J1-PDC patient-derived uterine sarcoma cell line growth inhibition [Asc]
Conditions: for viability, T/C: stronger effect = lower value
How it was run: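 Stromal components (HUVEC and hMSC) are co-assembled with the cancer cells into multicellular spheroids. Drugs are then added singly or paired, at concentrations falling by half-log increments from a clinically achievable maximum, capped at 10 microM without known Cmax.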

[1] = curve of first compound, second compound 0.01 µM
[2] = curve of first compound, second compound 0.0316 µM
[3] = curve of first compound, second compound 0.1 µM
[4] = curve of first compound, second compound 0.316 µM
[5] = curve of first compound, second compound 1 µM
[6] = second compound 0.1 µM, first compound 0.0316 µM
[7] = second compound 0.1 µM, first compound 0.1 µM
[8] = second compound 0.1 µM, first compound 0.316 µM
[9] = second compound 0.1 µM, first compound 1 µM
[10] = second compound 0.316 µM, first compound 0.0316 µM
[11] = second compound 0.316 µM, first compound 0.1 µM
[12] = second compound 0.316 µM, first compound 0.316 µM
[13] = second compound 0.316 µM, first compound 1 µM
[14] = second compound 1 µM, first compound 0.0316 µM
[15] = second compound 1 µM, first compound 0.1 µM
[16] = second compound 1 µM, first compound 0.316 µM
[17] = second compound 1 µM, first compound 1 µM
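Also: spheroids exposed to compounds for seven days.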

CNC(C)C(=O)NC1CN(S(=O)(=O)c2cccc(S(=O)(=O)N3CCC4CCC(C(=O)NC(c5ccccc5)c5ccccc5)N4C(=O)C(NC(=O)C(C)NC)C3)c2)CCC2CCC(C(=O)NC(c3ccccc3)c3ccccc3)N2C1=O (stereo unspecified)
viability, T/C (compound 0.00316 µM): 80% and 76.5%
viability, T/C (compound 0.01 µM): 68.6% [middle of 15 runs]
viability, T/C (compound 0.0316 µM): 62.4% [middle of 15 runs]
viability, T/C (compound 0.1 µM): 55.9% [middle of 15 runs]
viability, T/C (compound 1 µM): 50.4% [middle of 15 runs]
pIC50 (curve of compound): < 6.00

C=CC(=O)N1CCN(c2nc(=O)n(-c3c(C)ccnc3C(C)C)c3nc(-c4c(O)cccc4F)c(F)cc23)C(C)C1 (stereo unspecified) + CNC(C)C(=O)NC1CN(S(=O)(=O)c2cccc(S(=O)(=O)N3CCC4CCC(C(=O)NC(c5ccccc5)c5ccccc5)N4C(=O)C(NC(=O)C(C)NC)C3)c2)CCC2CCC(C(=O)NC(c3ccccc3)c3ccccc3)N2C1=O
pIC50 [1]: < 5.00
pIC50 [2]: < 5.00
pIC50 [3]: < 5.00
pIC50 [4]: < 5.00
pIC50 [5]: < 5.00
viability, T/C (second compound 0.01 µM, first compound 0.0316 µM): 58.3%
viability, T/C (second compound 0.01 µM, first compound 0.1 µM): 67.2%
viability, T/C (second compound 0.01 µM, first compound 0.316 µM): 71.1%
viability, T/C (second compound 0.01 µM, first compound 1 µM): 69.7%
viability, T/C (second compound 0.01 µM, first compound 3.16 µM): 75.1%
viability, T/C (second compound 0.01 µM, first compound 10 µM): 68.1%
viability, T/C (second compound 0.0316 µM, first compound 0.0316 µM): 58.9%
viability, T/C (second compound 0.0316 µM, first compound 0.1 µM): 65.8%
viability, T/C (second compound 0.0316 µM, first compound 0.316 µM): 66.2%
viability, T/C (second compound 0.0316 µM, first compound 1 µM): 49.3%
viability, T/C (second compound 0.0316 µM, first compound 3.16 µM): 62.8%
viability, T/C (second compound 0.0316 µM, first compound 10 µM): 61.2%
viability, T/C [6]: 56.7%
viability, T/C [7]: 49.8%
viability, T/C [8]: 62.8%
viability, T/C [9]: 65%
viability, T/C (second compound 0.1 µM, first compound 3.16 µM): 59.9%
viability, T/C (second compound 0.1 µM, first compound 10 µM): 64.5%
viability, T/C [10]: 52.3%
viability, T/C [11]: 48.6%
viability, T/C [12]: 60.6%
viability, T/C [13]: 55.9%
viability, T/C (second compound 0.316 µM, first compound 3.16 µM): 62.1%
viability, T/C (second compound 0.316 µM, first compound 10 µM): 59.5%
viability, T/C [14]: 51.7%
viability, T/C [15]: 57.3%
viability, T/C [16]: 61.5%
viability, T/C [17]: 60.6%
viability, T/C (second compound 1 µM, first compound 3.16 µM): 59.2%
viability, T/C (second compound 1 µM, first compound 10 µM): 59%

CCN1CCN(Cc2ccc(Nc3ncc(F)c(-c4cc(F)c5nc(C)n(C(C)C)c5c4)n3)nc2)CC1 + Cc1c(S(C)(=O)=O)c(-c2cc(F)cc(N3CCN(c4ccc(NS(=O)(=O)c5ccc(NC(CCN6CCC(C(=O)OCCCP(=O)(O)O)CC6)CSc6ccccc6)c(S(=O)(=O)C(F)(F)F)c5)cc4)CC3)c2)c(-c2ccc(Cl)cc2)n1C(C)C
pIC50 [3]: < 6.00
pIC50 [4]: 6.07
pIC50 [5]: 6.46
pIC50 (curve of first compound, second compound 3.16 µM): > 8.50
pIC50 (curve of first compound, second compound 10 µM): 6.33
viability, T/C (second compound 0.1 µM, first compound 0.00316 µM): 70.2%
viability, T/C (second compound 0.1 µM, first compound 0.01 µM): 81.9%
viability, T/C [6]: 64.3%
viability, T/C [7]: 60.6%
viability, T/C [8]: 85%
viability, T/C [9]: 50.7%
viability, T/C (second compound 0.316 µM, first compound 0.00316 µM): 54.2%
viability, T/C (second compound 0.316 µM, first compound 0.01 µM): 55.5%
viability, T/C [10]: 63.5%
viability, T/C [11]: 64.7%
viability, T/C [12]: 64.3%
viability, T/C [13]: 32.5%
viability, T/C (second compound 1 µM, first compound 0.00316 µM): 48.1%
viability, T/C (second compound 1 µM, first compound 0.01 µM): 52.4%
viability, T/C [14]: 49.5%
viability, T/C [15]: 58.7%
viability, T/C [16]: 55%
viability, T/C [17]: 16.5%
viability, T/C (second compound 3.16 µM, first compound 0.00316 µM): 37.3%
viability, T/C (second compound 3.16 µM, first compound 0.01 µM): 45.3%
viability, T/C (second compound 3.16 µM, first compound 0.0316 µM): 46.6%
viability, T/C (second compound 3.16 µM, first compound 0.1 µM): 41.8%
viability, T/C (second compound 3.16 µM, first compound 0.316 µM): 38.7%
viability, T/C (second compound 3.16 µM, first compound 1 µM): 16.2%
viability, T/C (second compound 10 µM, first compound 0.00316 µM): 70.5%
viability, T/C (second compound 10 µM, first compound 0.01 µM): 67.4%
viability, T/C (second compound 10 µM, first compound 0.0316 µM): 71.2%
viability, T/C (second compound 10 µM, first compound 0.1 µM): 76.9%
viability, T/C (second compound 10 µM, first compound 0.316 µM): 67.4%
viability, T/C (second compound 10 µM, first compound 1 µM): 14%

CCN1C(C(=O)NC23CCC(C(=O)O)(CC2)CC3)C(c2cccc(Cl)c2F)C2(C(=O)Nc3cc(Cl)ccc32)C12CCCCC2 (stereo unspecified) + CNC(C)C(=O)NC1CN(S(=O)(=O)c2cccc(S(=O)(=O)N3CCC4CCC(C(=O)NC(c5ccccc5)c5ccccc5)N4C(=O)C(NC(=O)C(C)NC)C3)c2)CCC2CCC(C(=O)NC(c3ccccc3)c3ccccc3)N2C1=O
pIC50 [1]: < 5.52
pIC50 [2]: < 5.52
pIC50 [3]: < 5.52
pIC50 [4]: > 8.02
pIC50 [5]: < 5.52
viability, T/C (second compound 0.01 µM, first compound 0.00949 µM): 66.7%
viability, T/C (second compound 0.01 µM, first compound 0.03 µM): 61.1%
viability, T/C (second compound 0.01 µM, first compound 0.0949 µM): 64%
viability, T/C (second compound 0.01 µM, first compound 0.3 µM): 66.5%
viability, T/C (second compound 0.01 µM, first compound 0.949 µM): 74.5%
viability, T/C (second compound 0.01 µM, first compound 3 µM): 60%
viability, T/C (second compound 0.0316 µM, first compound 0.00949 µM): 66.2%
viability, T/C (second compound 0.0316 µM, first compound 0.03 µM): 61.2%
viability, T/C (second compound 0.0316 µM, first compound 0.0949 µM): 55%
viability, T/C (second compound 0.0316 µM, first compound 0.3 µM): 54.5%
viability, T/C (second compound 0.0316 µM, first compound 0.949 µM): 68.5%
viability, T/C (second compound 0.0316 µM, first compound 3 µM): 61.1%
viability, T/C (second compound 0.1 µM, first compound 0.00949 µM): 58.9%
viability, T/C (second compound 0.1 µM, first compound 0.03 µM): 50%
viability, T/C (second compound 0.1 µM, first compound 0.0949 µM): 56%
viability, T/C (second compound 0.1 µM, first compound 0.3 µM): 48.4%
viability, T/C (second compound 0.1 µM, first compound 0.949 µM): 60.1%
viability, T/C (second compound 0.1 µM, first compound 3 µM): 64%
viability, T/C (second compound 0.316 µM, first compound 0.00949 µM): 48.9%
viability, T/C (second compound 0.316 µM, first compound 0.03 µM): 55.7%
viability, T/C (second compound 0.316 µM, first compound 0.0949 µM): 53%
viability, T/C (second compound 0.316 µM, first compound 0.3 µM): 60.8%
viability, T/C (second compound 0.316 µM, first compound 0.949 µM): 68.7%
viability, T/C (second compound 0.316 µM, first compound 3 µM): 58.1%
viability, T/C (second compound 1 µM, first compound 0.00949 µM): 55.3%
viability, T/C (second compound 1 µM, first compound 0.03 µM): 59.9%
viability, T/C (second compound 1 µM, first compound 0.0949 µM): 45.4%
viability, T/C (second compound 1 µM, first compound 0.3 µM): 40.9%
viability, T/C (second compound 1 µM, first compound 0.949 µM): 51.8%
viability, T/C (second compound 1 µM, first compound 3 µM): 63.1%
